The values that follow come from PMC4018225 (Biopharmaceutics & drug disposition, 2013).

Read-outs that look alike come from different tables or passages of the source. Marks after values point to notes of the source that are not given here.

Series [1] is classed as in vivo, human. As to conditions: for AUC (weight and dose normalized) / TAC V/F: median [IQR]; for CL/F: human, whole blood, oral.
For series [2] the following is noted: nonHIV tx, cited from earlier work.
Series [3] can be described thus: Reference pharmacokinetics of CsA and TAC in nonHIV transplant patients. The class given is in vivo, human. As to conditions: nonHIV tx; average for both PI time periods.
For series [4] the following is noted: HIV-1 infected volunteers; concomitant use of EFV or NVP; cited from earlier work.
The conditions of series [5]: HIV infected subjects compared to healthy volunteers; cited from earlier work.
The mark [6] stands for this setting: co-medication EFV, wk 28, 52, 104.
Setting [7] is: co-medication NVP, wk 28, 52, 104.

In the case of `C=CC[C@@H]1/C=C(\C)C[C@H](C)C[C@H](OC)[C@H]2O[C@@](O)(C(=O)C(=O)N3CCCC[C@H]3C(=O)O[C@H](/C(C)=C/[C@@H]3CC[C@@H](O)[C@H](OC)C3)[C@H](C)[C@@H](O)CC1=O)[C@H](C)C[C@@H]2OC` [TAC, tacrolimus], the “AUC (weight and dose normalized)” value in series [1] (+EFV, wks 2–12) is 2170 [936–3261] ng*hr/mL/mg/kg; in series [1] (+EFV, wks 28–104), 1911 [1423–3071] ng*hr/mL/mg/kg; in series [1] (+NVP, wks 2–12), 3644 [3115–5157] ng*hr/mL/mg/kg; in series [1] (+NVP, wks 28–104) it was 4220 [2703–6229] ng*hr/mL/mg/kg; in series [1] (+PI, wks 2–12) it was 24996 [18205–41601] ng*hr/mL/mg/kg; in series [1] (+PI, wks 28–104), 34653 [17208–42250] ng*hr/mL/mg/kg. Besides, the “AUC (weight and dose normalized)” value in series [2] (wks 2–12) and in series [2] (wks 28–104) was 2000 to 5000 ng·h/mL/mg/kg throughout. The “TAC CL/F Ratio to PI” value is given as 18.1 in series [1] (setting [6]); 11.5 in series [1] (co-medication EFV, wks 2–12); 8.72 in series [1] (setting [7]); 6.85 in series [1] (co-medication NVP, wks 2–12); 1 in series [1] (co-medication PI, wk 28, 52); 1 in series [1] (co-medication PI, wks 2–12). For the same compound, the “TAC CL/F Ratio to PI” value in series [3] is “(10.1) ^*”. The “TAC CL/V” value is 0.068 h⁻¹ in series [1] (setting [6]); 0.074 h⁻¹ in series [1] (co-medication EFV, wks 2–12); 0.031 h⁻¹ in series [1] (setting [7]); 0.056 h⁻¹ in series [1] (co-medication NVP, wks 2–12); 0.029 h⁻¹ in series [1] (co-medication PI, wk 28, 52); 0.043 h⁻¹ in series [1] (co-medication PI, wks 2–12). For the same compound, the “TAC CL/V” value in series [2] is 0.058 h⁻¹. Besides, the “TAC CL/V Ratio to PI” value is on record as 2.33 in series [1] (setting [6]); 1.72 in series [1] (co-medication EFV, wks 2–12); 1.07 in series [1] (setting [7]); 1.31 in series [1] (co-medication NVP, wks 2–12); 1 in series [1] (co-medication PI, wk 28, 52); 1 in series [1] (co-medication PI, wks 2–12). In addition, in series [3], the “TAC CL/V Ratio to PI” value is given as “(1.6) ^*”. The “TAC V/F Ratio to PI” value is listed as 7.78 in series [1] (setting [6]); 6.66 in series [1] (co-medication EFV, wks 2–12); 8.17 in series [1] (setting [7]); 5.20 in series [1] (co-medication NVP, wks 2–12); 1 in series [1] (co-medication PI, wk 28, 52); 1 in series [1] (co-medication PI, wks 2–12). In series [3], the “TAC V/F Ratio to PI” value was “(6.2) ^*”. For the same compound, the “TAC V/F” value in series [1] (setting [6]) is 7.70 [6.22–10.70] L/kg; in series [1] (co-medication EFV, wks 2–12) it was 6.26 [5.42–10.91] L/kg; in series [1] (setting [7]), 8.09 [3.46–15.14] L/kg; in series [1] (co-medication NVP, wks 2–12), 4.89 [2.74–6.16] L/kg; in series [1] (co-medication PI, wk 28, 52), 0.99 [0.31–1.19] L/kg; in series [1] (co-medication PI, wks 2–12), 0.94 [0.64–1.29] L/kg. Further, the “TAC V/F” value in series [2] is reported as 6 L/kg. For the same compound, the apparent clearance CL/F (in general, the apparent clearance, not corrected for the fraction that reaches the circulation) in series [1] (0.003 mg/kg) is 0.483 mL/min/kg; in series [1] (0.007 mg/kg) it was 0.667 mL/min/kg; in series [1] (0.046 mg/kg), 8.77 mL/min/kg; in series [1] (0.058 mg/kg), 7.68 mL/min/kg. Also, in series [1] (in vivo), the “TAC apparent volume of distribution ratio, PI compared to EFV” value is 0.15. In addition, the “TAC apparent volume of distribution ratio, PI compared to NVP” value in series [1] (in vivo) is given as 0.19. Further, the “increase in drug exposure on concomitant administration with PIs” value in series [1] (in vivo) was 2–50 fold. Further, the “increase in exposure (AUC/dose) in the presence of PIs relative to NNRTIs” value in series [1] (in vivo) is listed as “more than 10 fold”. The “TAC CL/F ratio, PI compared to EFV” value in series [1] (weeks 2–12) stood at 0.09. In addition, in series [1] (weeks 2–12), the “TAC CL/F ratio, PI compared to NVP” value is recorded as 0.15. In series [2], the “TAC CL/F” value is 5.83 mL/min/kg.
On to `Cc1cccc(C)c1OCC(=O)N[C@@H](Cc1ccccc1)[C@@H](O)C[C@H](Cc1ccccc1)NC(=O)[C@H](C(C)C)N1CCCNC1=O` [lopinavir], for which the “increase in apparent oral clearance” value in series [4] is 39%.
For `Cc1ncc2n1-c1ccc(Cl)cc1C(c1ccccc1F)=NC2` [midazolam], the decrease in clearance in series [5] is listed as ~ 50%.
